The text below walks through data of the NIST ThermoML archive (doi:10.1016/j.fluid.2010.01.025).

For data set [1] the following is noted: Crystal; DTA.
Data set [2] in a line: Molar enthalpy of transition or fusion. The conditions noted are these: Crystal; DSC.

± gives the expanded uncertainty stated by the source.

With `CCCC[n+]1cccc(C)c1.Cc1ccc(S(=O)(=O)[O-])cc1` [1-butyl-3-methylpyridinium 4-methylbenzenesulfonate], the Normal melting temperature in data set [1] stood at 42.7 ± 0.4 °C. In addition, the “Molar enthalpy of transition or fusion” value in data set [2] is 2.71 ± 0.0837 kcal/mol.
